According to ChEMBL document CHEMBL4396872, “Pharmacokinetics-Driven Optimization of 4(3 H)-Pyrimidinones as Phosphodiesterase Type 5 Inhibitors Leading to TPN171, a Clinical Candidate for the Treatment of Pulmonary Arterial Hypertension” (J Med Chem, 2019):
pIC50: −log10 of the molar value. The source made the active and inactive calls. The rule behind the calls is not given here.

Tests used:
Rattus norvegicus [1] = assay: Antihypertensive activity in spontaneously hypertensive rat assessed as reduction in mean arterial pressure at 20 mg/kg administered via single gavage and measured at 2 hrs; assay type: functional, organism-based
[2] = Volume of distribution at steady state in Beagle dog at 0.5 mg/kg, iv measured up to 24 hrs by LC-MS/MS analysis; assay type: ADME, organism-based, Canis lupus familiaris; conditions: in vivo, read-out: Vdss
[3] = MRT in Sprague-Dawley rat at 1 mg/kg, iv measured up to 24 hrs by LC-MS/MS analysis; assay type: ADME, organism-based; conditions: in vivo
[4] = AUC (0 to t) in Sprague-Dawley rat at 1 mg/kg, po measured up to 24 hrs by LC-MS/MS analysis; assay type: ADME, organism-based; parameters: time < 24 hr, dose 1 mg/kg, route oral; conditions: in vivo
[5] = MRT in Beagle dog at 0.5 mg/kg, po measured up to 24 hrs by LC-MS/MS analysis; assay type: ADME, organism-based, Canis lupus familiaris; conditions: in vivo
[6] = AUC (0 to infinity) in Sprague-Dawley rat at 1 mg/kg, iv measured up to 24 hrs by LC-MS/MS analysis; assay type: ADME, organism-based; parameters: dose 1 mg/kg, time infinity, route intravenous; conditions: in vivo
[7] = Volume of distribution at steady state in Sprague-Dawley rat at 1 mg/kg, iv measured up to 24 hrs by LC-MS/MS analysis; assay type: ADME, organism-based; conditions: in vivo, read-out: Vdss
[8] = Clearance in Sprague-Dawley rat at 1 mg/kg, iv measured up to 24 hrs by LC-MS/MS analysis; assay type: ADME, organism-based; conditions: in vivo
[9] = AUC (0 to t) in Beagle dog at 0.5 mg/kg, iv measured up to 24 hrs by LC-MS/MS analysis; assay type: ADME, organism-based, Canis lupus familiaris; parameters: time < 24 hr, dose 0.5 mg/kg, route intravenous; conditions: in vivo
[10] = AUC (0 to infinity) in Sprague-Dawley rat at 1 mg/kg, po measured up to 24 hrs by LC-MS/MS analysis; assay type: ADME, organism-based; parameters: dose 1 mg/kg, route oral, time infinity; conditions: in vivo
[11] = target: T1, cGMP-specific 3',5'-cyclic phosphodiesterase (Homo sapiens, UniProt O76074)
[12] = Half-life in Sprague-Dawley rat at 1 mg/kg, po measured up to 24 hrs by LC-MS/MS analysis; assay type: ADME, organism-based; conditions: in vivo
[13] = Cmax in Sprague-Dawley rat at 1 mg/kg, po measured up to 24 hrs by LC-MS/MS analysis; assay type: ADME, organism-based; parameters: dose 1 mg/kg, route oral; conditions: in vivo
[14] = target: T1, cGMP-specific 3',5'-cyclic phosphodiesterase; remark: listed apart in the source
Phosphodiesterase 1 = Phosphodiesterase 1 (Homo sapiens, UniProt P54750+Q01064+Q14123); assay: Inhibition of N-terminal GST-tagged human PDE1 expressed in baculovirus infected sf9 cells using [3H]cAMP as substrate measured after 30 mins by scintillation proximity assay
[15] = target: Cone cGMP-specific 3',5'-cyclic phosphodiesterase subunit alpha' (Homo sapiens, UniProt P51160); assay: Inhibition of N-terminal GST-tagged human PDE6C expressed in baculovirus infected sf9 cells using [3H]cGMP as substrate measured after 30 mins by scintillation proximity assay
Sequence of Cone cGMP-specific 3',5'-cyclic phosphodiesterase subunit alpha' (P51160 whole entry): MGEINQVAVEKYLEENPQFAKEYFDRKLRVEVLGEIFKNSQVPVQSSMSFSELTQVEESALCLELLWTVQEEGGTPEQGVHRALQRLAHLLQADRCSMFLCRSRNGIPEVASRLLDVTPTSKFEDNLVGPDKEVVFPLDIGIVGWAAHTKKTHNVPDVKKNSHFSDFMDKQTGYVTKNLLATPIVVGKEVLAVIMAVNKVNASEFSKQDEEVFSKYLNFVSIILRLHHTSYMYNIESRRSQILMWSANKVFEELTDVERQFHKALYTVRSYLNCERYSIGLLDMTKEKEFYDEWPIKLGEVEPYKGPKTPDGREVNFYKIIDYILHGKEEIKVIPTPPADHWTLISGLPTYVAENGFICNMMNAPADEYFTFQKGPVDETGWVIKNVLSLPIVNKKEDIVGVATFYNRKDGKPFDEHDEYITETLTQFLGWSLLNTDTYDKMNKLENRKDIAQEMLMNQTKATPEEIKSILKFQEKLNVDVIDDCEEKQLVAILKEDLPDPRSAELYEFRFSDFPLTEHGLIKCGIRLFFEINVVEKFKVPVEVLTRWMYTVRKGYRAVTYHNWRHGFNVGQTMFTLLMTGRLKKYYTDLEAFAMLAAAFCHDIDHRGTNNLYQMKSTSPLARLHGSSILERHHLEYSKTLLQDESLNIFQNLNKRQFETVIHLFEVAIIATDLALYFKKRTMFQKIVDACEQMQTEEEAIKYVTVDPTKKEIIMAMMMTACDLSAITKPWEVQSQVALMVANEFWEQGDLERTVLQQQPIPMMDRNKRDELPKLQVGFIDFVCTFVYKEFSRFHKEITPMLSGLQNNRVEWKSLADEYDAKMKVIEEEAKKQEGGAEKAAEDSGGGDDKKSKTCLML

[16] = Half-life in Sprague-Dawley rat at 1 mg/kg, iv measured up to 24 hrs by LC-MS/MS analysis; assay type: ADME, organism-based; conditions: in vivo
[17] = Tmax in Sprague-Dawley rat at 1 mg/kg, po measured up to 24 hrs by LC-MS/MS analysis; assay type: ADME, organism-based; conditions: in vivo
[18] = AUC (0 to infinity) in Beagle dog at 0.5 mg/kg, po measured up to 24 hrs by LC-MS/MS analysis; assay type: ADME, organism-based, Canis lupus familiaris; parameters: dose 0.5 mg/kg, time infinity, route oral; conditions: in vivo
[19] = Half-life in Beagle dog at 0.5 mg/kg, po measured up to 24 hrs by LC-MS/MS analysis; assay type: ADME, organism-based, Canis lupus familiaris; conditions: in vivo
[20] = Terminal half life in human at 5 mg, po administered once daily measured under phase 1 clinical trials; assay type: ADME, organism-based; conditions: in vivo, read-out: beta t1/2 (converted)
[21] = MRT in Beagle dog at 0.5 mg/kg, iv measured up to 24 hrs by LC-MS/MS analysis; assay type: ADME, organism-based, Canis lupus familiaris; conditions: in vivo
Rattus norvegicus [22] = assay: […] activity in MCT-induced pulmonary arterial hypertension Sprague-Dawley rat model assessed as reduction in mean pulmonary artery pressure at 25 mg/kg administered once daily for 21 days starting from 21 days post-MCT challenge by right cardiac catheter method; assay type: functional, organism-based
[23] = AUC (0 to t) in Sprague-Dawley rat at 1 mg/kg, iv measured up to 24 hrs by LC-MS/MS analysis; assay type: ADME, organism-based; parameters: time < 24 hr, dose 1 mg/kg, route intravenous; conditions: in vivo
Rattus norvegicus [24] = assay: Antihypertensive activity in spontaneously hypertensive rat assessed as reduction in mean arterial pressure at 20 mg/kg administered via single gavage and measured at 4 hrs; assay type: functional, organism-based
[25] = Oral bioavailability in Sprague-Dawley rat at 1 mg/kg measured up to 24 hrs by LC-MS/MS analysis; assay type: ADME, organism-based; conditions: in vivo
Rattus norvegicus [26] = assay: […] activity in MCT-induced pulmonary arterial hypertension Sprague-Dawley rat model assessed as reduction in mean pulmonary artery pressure at 1 mg/kg administered once daily for 21 days starting from 21 days post-MCT challenge by right cardiac catheter method; assay type: functional, organism-based
[27] = AUC (0 to infinity) in Beagle dog at 0.5 mg/kg, iv measured up to 24 hrs by LC-MS/MS analysis; assay type: ADME, organism-based, Canis lupus familiaris; parameters: dose 0.5 mg/kg, time infinity, route intravenous; conditions: in vivo
[28] = target: T1, cGMP-specific 3',5'-cyclic phosphodiesterase; remark: listed apart in the source
[29] = Clearance in Beagle dog at 0.5 mg/kg, iv measured up to 24 hrs by LC-MS/MS analysis; assay type: ADME, organism-based, Canis lupus familiaris; conditions: in vivo
[30] = Half-life in Beagle dog at 0.5 mg/kg, iv measured up to 24 hrs by LC-MS/MS analysis; assay type: ADME, organism-based, Canis lupus familiaris; conditions: in vivo
[31] = target: Dual 3',5'-cyclic-AMP and -GMP phosphodiesterase 11A (Homo sapiens, UniProt Q9HCR9); assay: Inhibition of N-terminal GST-tagged human PDE11A4 expressed in baculovirus infected sf9 cells using [3H]cGMP as substrate measured after 30 mins by scintillation proximity assay
Sequence of Dual 3',5'-cyclic-AMP and -GMP phosphodiesterase 11A (Q9HCR9 whole entry): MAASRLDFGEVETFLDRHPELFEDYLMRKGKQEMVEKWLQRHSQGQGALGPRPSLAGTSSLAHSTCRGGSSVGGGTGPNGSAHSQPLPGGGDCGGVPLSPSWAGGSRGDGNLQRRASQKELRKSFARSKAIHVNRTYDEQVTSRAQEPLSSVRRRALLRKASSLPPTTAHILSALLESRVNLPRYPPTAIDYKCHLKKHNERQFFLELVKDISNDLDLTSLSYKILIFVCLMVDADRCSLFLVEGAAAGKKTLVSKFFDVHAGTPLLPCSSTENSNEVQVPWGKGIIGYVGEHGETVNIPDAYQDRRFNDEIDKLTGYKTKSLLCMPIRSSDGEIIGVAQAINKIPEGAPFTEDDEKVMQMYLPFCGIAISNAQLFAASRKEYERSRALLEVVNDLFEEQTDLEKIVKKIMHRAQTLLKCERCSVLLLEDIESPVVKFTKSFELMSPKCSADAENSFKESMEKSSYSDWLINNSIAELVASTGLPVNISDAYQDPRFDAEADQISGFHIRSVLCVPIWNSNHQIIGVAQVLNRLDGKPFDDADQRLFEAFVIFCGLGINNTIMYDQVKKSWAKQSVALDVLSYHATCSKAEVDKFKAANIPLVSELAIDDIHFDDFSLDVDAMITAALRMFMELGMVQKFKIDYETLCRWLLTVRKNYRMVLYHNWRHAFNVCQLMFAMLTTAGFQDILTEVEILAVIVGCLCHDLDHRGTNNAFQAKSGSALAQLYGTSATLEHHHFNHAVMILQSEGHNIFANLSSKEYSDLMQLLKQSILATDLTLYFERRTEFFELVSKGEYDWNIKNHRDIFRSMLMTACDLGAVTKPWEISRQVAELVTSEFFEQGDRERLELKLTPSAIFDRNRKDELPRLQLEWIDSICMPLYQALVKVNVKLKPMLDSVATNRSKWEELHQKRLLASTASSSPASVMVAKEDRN

[32] = Oral bioavailability Beagle dog at 0.5 mg/kg measured up to 24 hrs by LC-MS/MS analysis; assay type: ADME, organism-based, Canis lupus familiaris; conditions: in vivo
[33] = AUC (0 to t) in Beagle dog at 0.5 mg/kg, po measured up to 24 hrs by LC-MS/MS analysis; assay type: ADME, organism-based, Canis lupus familiaris; parameters: time < 24 hr, dose 0.5 mg/kg, route oral; conditions: in vivo
Rattus norvegicus [34] = assay: […] activity in MCT-induced pulmonary arterial hypertension Sprague-Dawley rat model assessed as reduction in mean pulmonary artery pressure at 100 mg/kg administered once daily for 21 days starting from 21 days post-MCT challenge by right cardiac catheter method; assay type: functional, organism-based
[35] = Tmax in Beagle dog at 0.5 mg/kg, po measured up to 24 hrs by LC-MS/MS analysis; assay type: ADME, organism-based, Canis lupus familiaris; conditions: in vivo
[36] = Metabolic stability in human liver microsomes assessed as parent compound remaining at 1 uM in presence of NADPH after 30 mins by LC-MS/MS analysis; assay type: ADME, Microsome; conditions: read-out: Stability
Rattus norvegicus [37] = assay: Antihypertensive activity in spontaneously hypertensive rat assessed as reduction in mean arterial pressure at 20 mg/kg administered via single gavage measured up to 24 hrs; assay type: functional, organism-based
[38] = Cmax in Beagle dog at 0.5 mg/kg, po measured up to 24 hrs by LC-MS/MS analysis; assay type: ADME, organism-based, Canis lupus familiaris; parameters: dose 0.5 mg/kg, route oral; conditions: in vivo
[39] = MRT in Sprague-Dawley rat at 1 mg/kg, po measured up to 24 hrs by LC-MS/MS analysis; assay type: ADME, organism-based; conditions: in vivo

CCCOc1ccc(NC(=O)CN2CCN(C)CC2)cc1-c1nc(CC)c(CC)c(=O)[nH]1
Activity (Rattus norvegicus [1]): Active
Vd [2]: 3.83 L/kg
MRT [3]: 2.22 h
AUCt [4]: 268 ng·h/mL
MRT [5]: 7.21 h
AUC [6]: 412 ng·h/mL
Vd [7]: 4.97 L/kg
clearance [8]: 37.7 mL/min/kg
AUCt [9]: 752 ng·h/mL
AUC [10]: 284 ng·h/mL
deltaG [11]: -41.1 kJ/mol
half-life [12]: 169 min
Cmax [13]: 43.9 ng/mL
deltaH [14]: -90.1 kJ/mol
IC50 (Phosphodiesterase 1): 3.64 µM
pIC50 [15]: 7.70
half-life [16]: 144 min
Tmax [17]: 2.8 h
AUC [18]: 514 ng·h/mL
half-life [19]: 293 min
half-life [20]: 654 min
MRT [21]: 6.07 h
Activity (Rattus norvegicus [22]): Active
AUCt [23]: 403 ng·h/mL
Activity (Rattus norvegicus [24]): Active
bioavailability [25]: 66.4%
Activity (Rattus norvegicus [26]): Active
AUC [27]: 773 ng·h/mL
-TdeltaS [28]: 49 kJ/mol
clearance [29]: 10.8 mL/min/kg
half-life [30]: 270 min
pIC50 [31]: 6.00
bioavailability [32]: 67%
AUCt [33]: 495 ng·h/mL
Activity (Rattus norvegicus [34]): Active
Tmax [35]: 1.9 h
remaining at 0.5 h, 1 µM [36]: 91%
Activity (Rattus norvegicus [37]): Active
Cmax [38]: 66.5 ng/mL
MRT [39]: 5.56 h
